Results published in ChEMBL document CHEMBL5620408, “Discovery of novel diarypyrimidine derivatives bearing six-membered non-aromatic heterocycles as potent HIV-1 NNRTIs with improved anti-resistance and drug-like profiles” (Eur J Med Chem, 2023).
The source made the active and inactive calls. No cut-off for these calls is given here.

How the values were obtained:
[1] = test system: Human immunodeficiency virus 1; test: Antiviral activity against HIV1 NL4-3 infected in MT4 cells at 25 ng/ml; format: functional, organism-based
MT4 = test: Cytotoxicity against human MT4 cells; format: toxicity, cell-based
[2] = test system: Human immunodeficiency virus 1; test: Antiviral activity against HIV1 NL4-3 infected in MT4 cells; format: functional, organism-based; conditions: Human immunodeficiency virus 1, NL4-3, MT4
[3] = Cytotoxicity against human MT4 cells assessed as reduction in cell viability by MTT assay; format: toxicity, cell-based
[4] = Selectivity index, ratio of CC50 for human MT4 cells to EC50 for antiviral activity against HIV IIIB
[5] = target: Human immunodeficiency virus type 1 reverse transcriptase (Human immunodeficiency virus 1, UniProt Q72547); test: Inhibition of wild type HIV-1 reverse transcriptase
[6] = test system: Human immunodeficiency virus 1; test: microbe, parasite or virus in culture; conditions: Human immunodeficiency virus 1, IIIB, MT4
Description: Antiviral activity against HIV1 IIIB infected in MT-4 cells assessed as viral induced cytopathic effect by MTT assay

[7] = test system: Human immunodeficiency virus 1; conditions: RES056, MT4
Description: (§1) Antiviral activity against HIV1 RES056 infected in MT-4 cells assessed as viral induced cytopathic effect by MTT assay

[8] = Selectivity index, ratio of CC50 for human MT4 cells to EC50 for antiviral activity against HIV RES056
[9] = test system: Human immunodeficiency virus 1; test: Potency index, ratio of zidovudine EC50 to test compound EC50 for antiviral activity against HIV1 IIIB; format: functional
[10] = test system: Human immunodeficiency virus 1; test: Potency index, ratio of (E)-3-[3,5-dimethyl-4-[2-[4-[(4-methylsulfonylpiperazin-1-yl)methyl]anilino]pyrimidin-4-yl]oxy-phenyl]prop-2-enenitrile EC50 to test compound EC50 for antiviral activity against HIV1 IIIB; format: functional
[11] = test system: Human immunodeficiency virus 1; test: Potency index, ratio of nevirapine EC50 to test compound EC50 for antiviral activity against HIV1 IIIB; format: functional
[12] = test system: Human immunodeficiency virus 1; test: Potency index, ratio of etravirine EC50 to test compound EC50 for antiviral activity against HIV1 IIIB; format: functional
[13] = test system: Human immunodeficiency virus 1; test: Potency index, ratio of efavirenz EC50 to test compound EC50 for antiviral activity against HIV1 IIIB; format: functional
[14] = test system: Human immunodeficiency virus 1; test: Antiviral activity against HIV1 harboring L100I mutant infected in MT4 cells; format: functional, organism-based; conditions: Human immunodeficiency virus 1, MT4
[15] = test system: Human immunodeficiency virus 1; test: Antiviral activity against HIV1 harboring K103N mutant infected in MT4 cells; format: functional, organism-based; conditions: Human immunodeficiency virus 1, MT4
[16] = test system: Human immunodeficiency virus 1; test: Antiviral activity against HIV1 harboring Y181C mutant infected in MT4 cells; format: functional, organism-based; conditions: Human immunodeficiency virus 1, MT4
[17] = test system: Human immunodeficiency virus 1; test: Antiviral activity against HIV1 harboring Y188L mutant infected in MT4 cells; format: functional, organism-based; conditions: Human immunodeficiency virus 1, MT4
[18] = test system: Human immunodeficiency virus 1; test: Antiviral activity against HIV1 harboring E138K mutant infected in MT4 cells; format: functional, organism-based; conditions: Human immunodeficiency virus 1, MT4
[19] = test system: Human immunodeficiency virus 1; test: Antiviral activity against HIV1 harboring F227L/V106A double mutant infected in MT4 cells; format: functional, organism-based; conditions: Human immunodeficiency virus 1, MT4
Cytochrome P450 1A2 = target: T1, Cytochrome P450 1A2 (Homo sapiens, UniProt P05177); test: Inhibition of CYP1A2 (unknown origin); format: ADME
T1 sequence (P05177 whole entry): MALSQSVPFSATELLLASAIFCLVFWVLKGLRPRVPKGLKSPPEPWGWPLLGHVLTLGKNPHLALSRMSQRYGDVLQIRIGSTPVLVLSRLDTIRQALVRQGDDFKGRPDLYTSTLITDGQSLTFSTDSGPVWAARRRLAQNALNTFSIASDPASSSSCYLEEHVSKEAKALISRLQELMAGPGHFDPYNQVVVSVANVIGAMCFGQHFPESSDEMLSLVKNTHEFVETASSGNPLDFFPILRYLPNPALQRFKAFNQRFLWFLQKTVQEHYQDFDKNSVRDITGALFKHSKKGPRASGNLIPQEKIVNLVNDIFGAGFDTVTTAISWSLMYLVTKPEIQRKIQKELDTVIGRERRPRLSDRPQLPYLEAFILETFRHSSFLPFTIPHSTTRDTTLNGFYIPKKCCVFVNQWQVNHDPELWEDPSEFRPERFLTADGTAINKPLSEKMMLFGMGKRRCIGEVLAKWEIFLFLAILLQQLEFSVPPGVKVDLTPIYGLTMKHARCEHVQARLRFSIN

Cytochrome P450 2C9 = Cytochrome P450 2C9 (Homo sapiens, UniProt P11712); test: Inhibition of CYP2C9 (unknown origin); format: ADME
Cytochrome P450 2C9, sequence (P11712 whole entry): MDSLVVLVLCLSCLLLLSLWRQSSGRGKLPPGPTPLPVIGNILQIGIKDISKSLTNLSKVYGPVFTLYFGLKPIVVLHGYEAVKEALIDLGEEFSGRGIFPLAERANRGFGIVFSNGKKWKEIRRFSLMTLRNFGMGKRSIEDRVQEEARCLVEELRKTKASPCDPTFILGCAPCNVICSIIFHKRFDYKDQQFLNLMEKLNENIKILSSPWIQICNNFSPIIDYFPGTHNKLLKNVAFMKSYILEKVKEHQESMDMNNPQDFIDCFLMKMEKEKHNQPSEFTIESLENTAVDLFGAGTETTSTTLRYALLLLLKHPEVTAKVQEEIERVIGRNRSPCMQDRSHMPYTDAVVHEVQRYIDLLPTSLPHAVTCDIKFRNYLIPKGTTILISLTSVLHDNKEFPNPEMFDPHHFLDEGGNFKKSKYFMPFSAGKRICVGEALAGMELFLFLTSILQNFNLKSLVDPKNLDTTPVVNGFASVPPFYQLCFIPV

Cytochrome P450 2C19 = Cytochrome P450 2C19 (Homo sapiens, UniProt P33261); test: Inhibition of CYP2C19 (unknown origin); format: ADME
Cytochrome P450 2C19, sequence (P33261 whole entry): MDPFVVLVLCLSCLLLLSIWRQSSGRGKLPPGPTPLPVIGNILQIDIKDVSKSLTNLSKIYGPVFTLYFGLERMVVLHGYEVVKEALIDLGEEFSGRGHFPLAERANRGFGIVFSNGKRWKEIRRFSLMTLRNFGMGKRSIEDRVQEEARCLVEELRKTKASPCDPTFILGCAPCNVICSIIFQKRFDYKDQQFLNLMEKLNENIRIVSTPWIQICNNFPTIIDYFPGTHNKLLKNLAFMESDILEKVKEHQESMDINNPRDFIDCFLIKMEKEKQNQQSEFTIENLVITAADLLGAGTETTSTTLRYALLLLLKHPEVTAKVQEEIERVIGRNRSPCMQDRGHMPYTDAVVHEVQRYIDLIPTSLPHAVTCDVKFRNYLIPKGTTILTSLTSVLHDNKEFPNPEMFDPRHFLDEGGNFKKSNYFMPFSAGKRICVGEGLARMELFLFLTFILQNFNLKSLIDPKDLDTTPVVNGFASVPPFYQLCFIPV

Cytochrome P450 2D6 = Cytochrome P450 2D6 (Homo sapiens, UniProt P10635); test: Inhibition of CYP2D6 (unknown origin); format: ADME
Cytochrome P450 2D6, sequence (P10635 whole entry): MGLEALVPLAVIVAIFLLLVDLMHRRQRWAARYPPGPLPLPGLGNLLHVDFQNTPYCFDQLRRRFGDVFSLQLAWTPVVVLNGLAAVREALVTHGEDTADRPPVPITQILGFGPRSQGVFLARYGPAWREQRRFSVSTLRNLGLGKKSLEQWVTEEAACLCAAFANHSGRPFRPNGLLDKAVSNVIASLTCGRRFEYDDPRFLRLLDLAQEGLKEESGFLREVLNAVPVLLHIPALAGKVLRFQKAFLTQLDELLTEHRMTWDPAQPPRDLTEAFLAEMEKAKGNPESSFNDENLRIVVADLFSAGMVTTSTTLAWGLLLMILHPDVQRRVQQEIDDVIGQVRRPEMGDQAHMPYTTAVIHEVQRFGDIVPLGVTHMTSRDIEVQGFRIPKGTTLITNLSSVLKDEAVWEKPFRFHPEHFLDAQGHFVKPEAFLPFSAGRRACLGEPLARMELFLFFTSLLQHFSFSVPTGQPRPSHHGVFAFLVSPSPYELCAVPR

Cytochrome P450 3A4 = Cytochrome P450 3A4 (Homo sapiens, UniProt P08684); test: Inhibition of CYP3A4 (unknown origin); format: ADME
Cytochrome P450 3A4, sequence (P08684 whole entry): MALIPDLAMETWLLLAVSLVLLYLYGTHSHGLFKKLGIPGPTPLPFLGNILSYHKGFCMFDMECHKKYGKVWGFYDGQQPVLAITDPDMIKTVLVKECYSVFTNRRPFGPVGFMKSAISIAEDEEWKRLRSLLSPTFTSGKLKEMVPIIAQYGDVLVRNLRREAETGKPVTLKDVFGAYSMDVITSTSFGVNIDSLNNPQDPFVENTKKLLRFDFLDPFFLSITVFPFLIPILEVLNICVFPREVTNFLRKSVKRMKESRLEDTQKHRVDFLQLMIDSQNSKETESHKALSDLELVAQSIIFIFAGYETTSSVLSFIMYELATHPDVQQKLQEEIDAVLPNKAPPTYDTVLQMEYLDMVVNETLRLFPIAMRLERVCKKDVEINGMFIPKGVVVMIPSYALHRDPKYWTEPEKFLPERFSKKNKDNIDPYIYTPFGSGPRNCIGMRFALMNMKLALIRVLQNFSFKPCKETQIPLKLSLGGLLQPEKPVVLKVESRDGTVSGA

[20] = Half life in Sprague-Dawley rat at 2 mg/kg, iv; format: ADME, organism-based; conditions: in vivo
[21] = Cmax in Sprague-Dawley rat at 2 mg/kg, iv; format: ADME, organism-based; conditions: in vivo
[22] = AUCt in Sprague-Dawley rat at 2 mg/kg, iv; format: ADME, organism-based; conditions: in vivo
[23] = AUCinfinity in Sprague-Dawley rat at 2 mg/kg, iv; format: ADME, organism-based; conditions: in vivo
[24] = Volume of distribution in Sprague-Dawley rat at 2 mg/kg, iv; format: ADME, organism-based; conditions: in vivo
[25] = Clearance in Sprague-Dawley rat at 2 mg/kg, iv; format: ADME, organism-based; conditions: in vivo
[26] = test system: Human immunodeficiency virus 1; test: Potency index, ratio of (E)-3-[3,5-dimethyl-4-[2-[4-[(4-methylsulfonylpiperazin-1-yl)methyl]anilino]pyrimidin-4-yl]oxy-phenyl]prop-2-enenitrile EC50 to test compound EC50 for antiviral activity against HIV1 harboring K103 N mutant; format: functional
[27] = test system: Human immunodeficiency virus 1; test: Potency index, ratio of nevirapine EC50 to test compound EC50 for antiviral activity against HIV1 harboring K103 N mutant; format: functional
[28] = test system: Human immunodeficiency virus 1; test: Potency index, ratio of etravirine EC50 to test compound EC50 for antiviral activity against HIV1 harboring K103 N mutant; format: functional
[29] = test system: Human immunodeficiency virus 1; test: Potency index, ratio of efavirenz EC50 to test compound EC50 for antiviral activity against HIV1 harboring K103 N mutant; format: functional
[30] = test system: Human immunodeficiency virus 1; test: Potency index, ratio of etravirine EC50 to test compound EC50 for antiviral activity against HIV1 harboring E138K mutant; format: functional
[31] = test system: Human immunodeficiency virus 1; test: Potency index, ratio of (E)-3-[3,5-dimethyl-4-[2-[4-[(4-methylsulfonylpiperazin-1-yl)methyl]anilino]pyrimidin-4-yl]oxy-phenyl]prop-2-enenitrile EC50 to test compound EC50 for antiviral activity against HIV1 harboring F227L/V106A double mutant; format: functional
[32] = test system: Human immunodeficiency virus 1; test: Potency index, ratio of efavirenz EC50 to test compound EC50 for antiviral activity against HIV1 harboring F227L/V106A double mutant; format: functional
[33] = test system: Human immunodeficiency virus 1; test: microbe, parasite or virus in culture; conditions: Human immunodeficiency virus 1, RES056, MT4
Description: as §1

For `Cc1cc(C#N)cc(C)c1Oc1ccnc(Nc2ccc(N3CCN(S(C)(=O)=O)CC3)cc2)n1`, which Activity [1] is on record?
The Activity was “inactive”.

And the Activity (MT4)?
Its Activity is “Non-Toxic”.

With `Cc1cc(/C=C/C#N)cc(C)c1Oc1ccnc(Nc2ccc(N3CCN(S(=O)(=O)C4CC4)CC3)c(F)c2)n1` as the molecule, how does the EC50 [2] read?
Its EC50 is 5.67 nM.

And the Activity (MT4)?
Its Activity is “Non-Toxic”.

What about the CC50 [3] of the same molecule?
The CC50 was 170000 nM.

And the selectivity ratio [4]?
The selectivity ratio was 32100.

And the IC50 [5]?
The IC50 was 100 nM.

What about the EC50 [6] of the same molecule?
The EC50 was 5 nM.

What about the Activity [7] of the same molecule?
Its Activity is “inactive”.

For `Cc1cc(/C=C/C#N)cc(C)c1Oc1ccnc(Nc2ccc(N3CCS(=O)(=O)CC3)c(F)c2)n1`, which CC50 [3] is on record?
The CC50 was 15800 nM.

What about the selectivity ratio [4] of the same molecule?
The selectivity ratio was 15500.

What about the selectivity ratio [8] of the same molecule?
The selectivity ratio was 86.

And the “Ratio EC50” value [9]?
Its value is 32.

What about the “Ratio EC50” value [10] of the same molecule?
The value was 2.7.

What about the “Ratio EC50” value [11] of the same molecule?
The value was 190.

And the “Ratio EC50” value [12]?
The value was 3.3.

What about the “Ratio EC50” value [13] of the same molecule?
The value was 3.7.

And the EC50 [14]?
Its EC50 is 5 nM.

What about the EC50 [15] of the same molecule?
The EC50 was 1 nM.

What about the EC50 [16] of the same molecule?
The EC50 was 8 nM.

What about the EC50 [17] of the same molecule?
The EC50 was 1170 nM.

What about the EC50 [18] of the same molecule?
The EC50 was 6 nM.

What about the EC50 [19] of the same molecule?
The EC50 was 24 nM.

What about the IC50 [5] of the same molecule?
The IC50 was 23 nM.

And the IC50 (Cytochrome P450 1A2)?
The IC50 was 21200 nM.

What about the IC50 (Cytochrome P450 2C9) of the same molecule?
Its IC50 is 5570 nM.

And the IC50 (Cytochrome P450 2C19)?
Its IC50 is 5280 nM.

What about the IC50 (Cytochrome P450 2D6) of the same molecule?
The IC50 was 14800 nM.

And the IC50 (Cytochrome P450 3A4)?
Its IC50 is greater than 100000 nM.

What about the half-life [20] of the same molecule?
The half-life was 6.59 h.

What about the Cmax [21] of the same molecule?
Its Cmax is 390 ng/mL.

What about the AUC(0-t) [22] of the same molecule?
Its AUC(0-t) is 297 ng·h/mL.

And the AUC(0-inf) [23]?
The AUC(0-inf) was 316 ng·h/mL.

And the Vd [24]?
Its Vd is 60.1 L/kg.

What about the clearance [25] of the same molecule?
Its clearance is 106 mL/min/kg.

What about the “Ratio EC50” value [26] of the same molecule?
Its value is 3.4.

What about the “Ratio EC50” value [27] of the same molecule?
Its value is 5490.

What about the “Ratio EC50” value [28] of the same molecule?
Its value is 3.9.

What about the “Ratio EC50” value [29] of the same molecule?
The value was 10.9.

And the “Ratio EC50” value [30]?
The value was 3.1.

And the “Ratio EC50” value [31]?
Its value is 10.

And the “Ratio EC50” value [32]?
Its value is 10.

What about the EC50 [6] of the same molecule?
Its EC50 is 1 nM.

And the EC50 [33]?
The EC50 was 180 nM.

What does the source list for `Cc1cc(C#N)cc(C)c1Oc1ccnc(Nc2ccc(C3CCN(S(=O)(=O)C(C)C)CC3)cc2)n1`?
Activity [1]: inactive; Activity (MT4): Non-Toxic

With `CCS(=O)(=O)N1CCC(c2ccc(Nc3nccc(Oc4c(C)cc(C#N)cc4C)n3)cc2)CC1` as the molecule, how does the Activity [1] read?
The Activity was “inactive”.

What about the Activity (MT4) of the same molecule?
The Activity was “Non-Toxic”.

For `Cc1cc(C#N)cc(C)c1Oc1ccnc(Nc2ccc(N3CCN(S(=O)(=O)C(C)C)CC3)cc2)n1`, which Activity [1] is on record?
The Activity was “inactive”.

And the Activity (MT4)?
Its Activity is “Non-Toxic”.

What does the source list for `Cc1cc(C#N)cc(C)c1Oc1ccnc(Nc2ccc(N3CCN(S(=O)(=O)C4CC4)CC3)cc2)n1`?
Activity [1]: inactive; Activity (MT4): Non-Toxic

For `Cc1cc(C#N)cc(C)c1Oc1ccnc(Nc2ccc(N3CCN(S(=O)(=O)N(C)C)CC3)cc2)n1`, which Activity [1] is on record?
The Activity was “inactive”.

What about the Activity (MT4) of the same molecule?
The Activity was “Non-Toxic”.

For `Cc1cc(C#N)cc(C)c1Oc1ccnc(Nc2ccc(N3CCN(S(=O)(=O)N(C)C)CC3)c(F)c2)n1`, which Activity [1] is on record?
The Activity was “inactive”.

And the Activity (MT4)?
Its Activity is “Non-Toxic”.

And the CC50 [3]?
Its CC50 is 186000 nM.

And the selectivity ratio [4]?
The selectivity ratio was 10300.

What about the IC50 [5] of the same molecule?
The IC50 was 150 nM.

What about the EC50 [6] of the same molecule?
The EC50 was 18 nM.

And the EC50 [33]?
Its EC50 is greater than 186000 nM.

Which Activity [1] does the source give for `Cc1cc(C#N)cc(C)c1Oc1ccnc(Nc2ccc(C3CCN(S(C)(=O)=O)CC3)cc2)n1` here?
The Activity was “inactive”.

What about the Activity (MT4) of the same molecule?
The Activity was “Non-Toxic”.

What does the source list for `Cc1cc(C#N)cc(C)c1Oc1ccnc(Nc2ccc(C3CCN(S(=O)(=O)N(C)C)CC3)cc2)n1`?
Activity [1]: inactive; Activity (MT4): Non-Toxic
